Reference: US20210077439A1 (priority 2016, published 2021)

Key:
[1] = in vivo; cited from earlier work
quadriceps muscle = tested on: quadriceps muscle; set-up: species or system New Zealand White rabbits; details: rabbit, in vivo
joints (arthritis) = details: dog, in vivo
[2] = tested on: quadriceps (knee extensor musculature); set-up: species or system New Zealand White rabbits; details: rabbit, in vivo
[3] = in vivo; cited from earlier work; remark: listed apart in the source
skeletal muscle = details: in vivo; cited from earlier work

For `CC(C)(O)CC(=O)O` [HMB, β-hydroxy-β-methylbutyric acid], the “loss of HMB to urine” value [1] is given as 20-50%, the “contralateral muscle weights as a percentage of body weight versus botox (p<0.10) and control (p<0.03) groups” value (quadriceps muscle) is given as “larger contralateral musculature” and the “muscle hypertrophy in the contralateral leg” value (quadriceps muscle) is given as “greatly increased”. For the same molecule, the “ataxia, owner-observed, after resuming the HMB regimen” value (joints (arthritis)) was “significant improvement”, the “joint stability and movement, owner-observed outcome” value (joints (arthritis)) was “increased joint stability, decreased joint instability, improved balanced movement and stability of skeletal joints” and the “mobility after resuming the HMB regimen during anti-seizure medication” value (joints (arthritis)) was “began standing up without assistance, and was able to climb stairs without significant assistance”. For the same molecule, the “botox-induced loss of strength in the contralateral musculature” value [2] was “prevented much of the botox-induced loss of strength” and the side effects [3] was “no side effects”.
In the case of `CC(C)(O)CC(=O)O` [HMB-FA], the “plasma levels of HMB compared with calcium HMB” value [1] is given as “approximately double”, the “time to plasma level compared with calcium HMB” value [1] is given as “about one-quarter the time” and the “decrease in protein breakdown” value (skeletal muscle) is given as −56%. The “increase in skeletal muscle protein synthesis” value (skeletal muscle) was “+70%”.
For `NCC1(CC(=O)O)CCCCC1` [gabapentin, reference compound], the “adverse effect of the seizure treatment” value (joints (arthritis)) was “severe ataxia”.
With `CCC1(c2ccccc2)C(=O)NC(=O)NC1=O` [phenobarbital, reference compound] the “adverse effect of the seizure treatment” value (joints (arthritis)) was “severe ataxia”.
With `[Br-].[K+]` [potassium bromide, reference compound] the “adverse effect of the seizure treatment” value (joints (arthritis)) was “severe ataxia”.
